This note sets out measurements from patent publication US20250346587A1, “NITROGEN-CONTAINING FIVE-MEMBERED HETEROCYCLIC DERIVATIVES AS CHECKPOINT KINASE 1 INHIBITOR AND USES THEREOF” (SPEROGENIX THERAPEUTICS LIMITED, priority 2022, published 2025).

SMILES strings stand for the structures. Converted amounts (≈) assume the structure as drawn.

Data set [1] is described as follows: Microsomal stability assay, rat liver microsome. The conditions noted are these: liver microsomes, pH 7.4, 0.2 mg/mL, 1 μM compound, 37° C., read-out: Clint RLM. In kind it is in vitro ADME. As to the method: (§1) Incubation mixture contained 0.2 mg/mL microsomes, 1 mmol NADPH, and test compound at 1 μM in 100 mmol potassium phosphate buffer at pH 7.4. The mixtures were incubated at 37° C. for 5, 15, and 30 minutes. Aliquots of the mixtures were taken at 0, 5, 15 and 30 minutes and quenched with chilled Acetonitrile:Methanol (50:50) containing internal standard. Following completion of incubation, samples were centrifuged at 4,000 rpm at 4° C. The supernatant was analyzed by LC-MS/MS and half-life, as well as intrinsic clearance (Clint), were calculated.
(Microsomes from liver hold many membrane-bound enzymes, among them those of drug oxidation.)

Data set [2] in a line: Microsomal stability assay, human liver microsome. In kind it is in vitro ADME. Conditions: liver microsomes, pH 7.4, 0.2 mg/mL, 1 μM compound, 37° C., read-out: Clint HLM. As to the method:
as §1

Data set [3] is described as follows: Kinetic solubility assay (nephelometry). The conditions noted are these: PBS, 37 °C, pH 7.4, aqueous buffer, kinetic from dmso stock.
Description: Test articles were serially diluted in DMSO from concentration range of 10 mM to 0.078 mM in 96 well v-bottom dilution plate (#3363, Corning). 1 μL of test article from each well was transferred to 96 well flat bottom clear plates (#655101, Greiner) containing 99 μL of PBS at pH-7.4, which makes the test drug final concentration range from 100 μM to 0.78 μM. Samples were incubated for 1 hour at 37° C. followed by measurement of light scattering at 625 nm with a laser based micro plate Nephelometer (Nephlostar Plus, BMG Labtech). Solubility concentration (μM) was then calculated by segmental regression with Neplometer as Readout.
In another data set the target is CHK-1 kinase (Homo sapiens (Human), UniProt O14757). The data set is described as follows: CHK-1 % inhibition kinase assay (TR-FRET). Format: biochemical. Conditions: ATP 15 μM; for inhibition at 0.03 µM / inhibition at 0.3 µM: CHK1 enzyme; for inhibition at 0.03 µM: compound 30 nM; for inhibition at 0.3 µM: compound 300 nM; for IC50: TR-FRET, read-out: CHK1 IC50. As to the method: Inhibition of CHK-1 kinase or percent inhibition at defined concentrations was determined by TR-FRET assay. Kinase reactions were performed in a 20 μL volume in low-volume 384-well plates (Cat #Corning 4511). The concentration of substrate Fluorescein-CREBtide was maintained at 0.2 μM in the assay, and the kinase reaction buffer consisted of 50 mM HEPES pH 7.5, 0.01% BRIJ-35, 10 mM MgCl2, 1 mM EGTA. Serially diluted compounds (3-fold) in DMSO (0.5% in final reaction) were incubated with cocktail of CHK-1 kinase (6 nM; Cat #PR3959B, ThermoFisher), Fluorescein-CREBtide (0.2 μM; Cat #PV3508, ThermoFisher), ATP (15 μM; Cat #A1852, Sigma), and kinase reaction buffer. After 1 hour kinase reactions at room temperature, 10 μL of Detection mix (8 nM LanthaScreen® Tb-CREB [pSer133] antibody, Cat #PV3542, ThermoFisher with 20 mM EDTA in TR-FRET Buffer, Cat #PV3574, ThermoFisher) was added, and the plate was read with a plate reader (Synergy™ NEO; Biotek) for TR-FRET.
The resulting TR-FRET emission ratio was used to calculate the percent inhibition by normalizing to the control using the following formula: […]

Data set [4] is described as follows: Microsomal stability assay, mouse liver microsome. Format: in vitro ADME. Conditions: liver microsomes, pH 7.4, 0.2 mg/mL, 1 μM compound, 37° C., read-out: Clint MLM. The protocol:
as §1

Chain of CHK-1 kinase (O14757 whole entry): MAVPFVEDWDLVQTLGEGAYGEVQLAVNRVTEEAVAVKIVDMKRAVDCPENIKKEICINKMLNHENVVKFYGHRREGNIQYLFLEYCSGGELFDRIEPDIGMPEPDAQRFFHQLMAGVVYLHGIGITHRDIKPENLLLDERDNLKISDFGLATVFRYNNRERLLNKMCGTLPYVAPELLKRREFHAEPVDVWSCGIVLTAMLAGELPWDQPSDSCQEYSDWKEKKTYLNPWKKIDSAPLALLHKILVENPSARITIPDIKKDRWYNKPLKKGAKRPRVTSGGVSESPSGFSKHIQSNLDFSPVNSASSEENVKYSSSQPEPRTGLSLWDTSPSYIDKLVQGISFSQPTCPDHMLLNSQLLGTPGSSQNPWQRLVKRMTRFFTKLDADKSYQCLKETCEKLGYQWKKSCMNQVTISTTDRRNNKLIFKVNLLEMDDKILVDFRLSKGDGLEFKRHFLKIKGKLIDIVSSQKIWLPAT

Take `N#Cc1cnc(Nc2cc(-c3ccccc3OCC3CCNC3)on2)cn1` (stereo not shown) [Compound 1.23, 5-(5-(2-(pyrrolidin-3-ylmethoxy)phenyl)isoxazol-3-ylamino) pyrazine-2-carbonitrile]: the microsomal CLint at 1 μM in data set [1] came out at 50 µL/min/mg; in data set [2], 37 µL/min/mg; in data set [4], 52 µL/min/mg. Further, in data set [3], the solubility (kinetic) (in general, the concentration staying in solution when a stock, usually in DMSO, is diluted into the medium) at 1 h was 46.6 µM (≈ 16.9 µg/mL). Further, the inhibition (as a rule, the relative decrease from the control value, in per cent) at 0.03 µM at CHK-1 kinase is 82%. The inhibition at 0.3 µM on CHK-1 kinase turned out to be 99%.

Take `N#Cc1cnc(Nc2cc(-c3cc4ccccc4cc3OCC3CCNCC3)[nH]n2)cn1` [Compound 2.1, 5-(5-(3-(piperidin-4-ylmethoxy)naphthalen-2-yl)-1H-pyrazol-3-ylamino) pyrazine-2-carbonitrile]: the microsomal CLint at 1 μM in data set [1] came out at 36 µL/min/mg; in data set [2] it was 25 µL/min/mg; in data set [4], 101 µL/min/mg. This molecule returned a kinetic solubility at 1 h in data set [3] of 34.7 µM (≈ 14.8 µg/mL). In addition, the inhibition at 0.03 µM at CHK-1 kinase was found to be 27%. The inhibition at 0.3 µM on CHK-1 kinase was 91%. In addition, the IC50 (in general, the concentration that inhibits the measured activity by half) at CHK-1 kinase turned out to be 2.46 nM.

Turning to `N#Cc1cnc(Nc2cc(-c3cc4ccccc4cc3OCC3CNC3)[nH]n2)cn1` [Compound 2.2, 5-(5-(3-(azetidine-3-ylmethoxy)naphthalen-2-yl)-1H-pyrazol-3-ylamino) pyrazine-2-carbonitrile], the microsomal CLint at 1 μM in data set [1] amounted to 45 µL/min/mg; in data set [2], 21 µL/min/mg; in data set [4], 153 µL/min/mg. Also, in data set [3], the kinetic solubility at 1 h worked out at 41.8 µM (≈ 16.6 µg/mL). Further, on CHK-1 kinase, the inhibition at 0.03 µM was determined as 80%. Besides, the inhibition at 0.3 µM on CHK-1 kinase was 96%. Also, the IC50 at CHK-1 kinase was 4.14 nM.

In the case of `N#Cc1cnc(Nc2cc(-c3cc4ccccc4cc3OCC3CNCCO3)[nH]n2)cn1` (stereo not shown) [Compound 2.3, 5-(5-(3-(morpholin-2-ylmethoxy)naphthalen-2-yl)-1H-pyrazol-3-ylamino) pyrazine-2-carbonitrile], the microsomal CLint at 1 μM in data set [1] came out at 39 µL/min/mg. Also, the microsomal CLint at 1 μM in data set [2] came out at 26 µL/min/mg. In data set [3], the kinetic solubility at 1 h amounted to 39.7 µM (≈ 17 µg/mL). Besides, on CHK-1 kinase, the inhibition at 0.03 µM is 41%, the inhibition at 0.3 µM turned out to be 81% and the IC50 came out at 8.15 nM. Also, in data set [4], the microsomal CLint at 1 μM came to 85 µL/min/mg.

`N#Cc1cnc(Nc2cc(-c3cc4ccccc4cc3OCC3CCNC3)[nH]n2)cn1` (stereo not shown) [Compound 2.4, 5-(5-(3-(pyrrolidin-3-ylmethoxy)naphthalen-2-yl)-1H-pyrazol-3-ylamino) pyrazine-2-carbonitrile]: in data set [1], the microsomal CLint at 1 μM was 94 µL/min/mg. The microsomal CLint at 1 μM in data set [2] was 33 µL/min/mg. The molecule further displayed a kinetic solubility at 1 h in data set [3] of 7.77 µM (≈ 3.2 µg/mL). On CHK-1 kinase, the inhibition at 0.03 µM came to 70%, the inhibition at 0.3 µM came to 97% and the IC50 came out at 2.34 nM. For the same molecule, in data set [4], the microsomal CLint at 1 μM came out at 142 µL/min/mg.

As for `N#Cc1cnc(Nc2cc(-c3cc4ccccc4cc3OCC3CCCNC3)[nH]n2)cn1` (stereo not shown) [Compound 2.5, 5-(5-(3-(piperidin-3-ylmethoxy)naphthalen-2-yl)-1H-pyrazol-3-ylamino) pyrazine-2-carbonitrile], the microsomal CLint at 1 μM in data set [1] is 124 µL/min/mg. Further, the microsomal CLint at 1 μM in data set [2] came to 14 µL/min/mg. In data set [3], this molecule displayed a kinetic solubility at 1 h of 41.6 µM (≈ 17.7 µg/mL). For the same molecule, at CHK-1 kinase, the inhibition at 0.03 µM came to 72%, the inhibition at 0.3 µM came to 96% and the IC50 stood at 4.36 nM. In addition, in data set [4], the microsomal CLint at 1 μM was 111 µL/min/mg.

Consider `N#Cc1cnc(Nc2cc(-c3cc4ccccc4cc3OCCN)[nH]n2)cn1` [Compound 2.6, 5-((5-(3-(2-aminoethoxy)naphthalen-2-yl)-1H-pyrazol-3-yl)amino) pyrazine-2-carbonitrile], for which the microsomal CLint at 1 μM amounted to 58 µL/min/mg in data set [1], 3 µL/min/mg in data set [2] and 153 µL/min/mg in data set [4]. Moreover, in data set [3], the solubility (kinetic) at 1 h amounted to 18.8 µM (≈ 6.98 µg/mL). For the same molecule, at CHK-1 kinase, the inhibition at 0.03 µM worked out at 61%. Also, the inhibition at 0.3 µM on CHK-1 kinase came to 90%. For the same molecule, the IC50 at CHK-1 kinase stood at 15.7 nM.

Regarding `N#Cc1cnc(Nc2cc(-c3cc4ccccc4cc3OCCCN)[nH]n2)cn1` [Compound 2.7, 5-(5-(3-(3-aminopropoxy)naphthalen-2-yl)-1H-pyrazol-3-ylamino) pyrazine-2-carbonitrile], in data set [1], the microsomal CLint at 1 μM came to 44 µL/min/mg. In addition, the microsomal CLint at 1 μM in data set [2] was 6 µL/min/mg. Also, in data set [3], the solubility (kinetic) at 1 h was 21.3 µM (≈ 8.21 µg/mL). In addition, at CHK-1 kinase, the inhibition at 0.03 µM is 95%, the inhibition at 0.3 µM came out at 100% and the IC50 is 0.933 nM. Moreover, the microsomal CLint at 1 μM in data set [4] was found to be 118 µL/min/mg.
